{"source": "patent US20240262835A1", "about": "“PRMT5 INHIBITING COMPOUNDS AND USES THEREOF” (ANTENGENE DISCOVERY LIMITED, priority 2023, published 2024)", "key": {"[1]": {"test_system": "cryopreserved hepatocytes", "conditions": "human"}, "[2]": {"test_system": "cryopreserved hepatocytes", "conditions": "rat", "procedure": "1) 10 mM test compounds were provided.\n(§1) 2) 30 mM positive control stock solutions: Dissolved accurate amount of positive control compounds in dimethyl sulfoxide (DMSO).\n(§2) 3) 1000× Stock Solution: Diluted 10 mM test compounds and 30 mM positive control compounds to 1 mM and 3 mM with DMSO in 96-well plates.\n(§3) 4) 100× Dosing Solution: Diluted 1 mM test compounds and 3 mM positive control compounds to 100 μM and 300 μM dosing solutions with ACN.\n(§4) 5) Preparation of 0.5×10^6/mL cells suspension: cryopreserved cells were thawed, isolated and suspended in Incubation Medium, then diluted with pre-warmed Incubation Medium to 0.5×10^6 cells/mL.\n(§5) 6) Add 198 μL of pre-warmed cell suspensions in 96-well plates.\n(§6) 7) Preparation of Quenching Plate: Transfer 125 μL of stop solution in a set of pre-labeled 96-well plates.\n(§7) 8) Spike 2 μL dosing solution to each well of 96-well plates in duplicate.\n(§8) 9) For TO Samples, mix to achieve a homogenous suspension for about 1 min, then immediately transfer 25 μL of each sample into well containing 125 μL of ice-cold stop solution followed by mixing.\n(§9) 10) Incubate all plates at 37° C. in a 95% humidified incubator at 5% CO2 to start the reactions with constant shaking.\n(§10) 11) At 15, 30, 60 and 90 min, mix samples and then transfer 25 μL of each sample at each time point to well containing 125 μL of ice-cold stop solution followed by mixing.\n(§11) 12) Medium Control (MC) sample plates (labeled as TO-MC and T90-MC) are prepared in the same way as cell incubation except that medium was used instead of cell suspension.\n(§12) 13) At each corresponding time point, stop the reactions by removing the plates from incubator and mixing with 125 μL of ice-cold stop solution.\n(§13) 14) Vortex the plates immediately on a plate shaker at 600 rpm for 10 minutes. Then, centrifuge all sample plates at 3220×g for 20 min at 4° C.\n(§14) 15) After centrifugation, 80 μL/well of supernatant in the sample plates are transferred to another set of pre-labeled 96-well plates which containing 240 μL of ultra pure water according to the plate map.\n(§15) 16) Analytical plates are sealed and store at 4° C. until LC-MS/MS analysis.\n(§16) The remaining percents of test articles after incubation were calculated by the follow equations:\n(§17) Use the following equation of first order kinetics to calculate T1/2 and CLint:"}, "[3]": {"test_system": "cryopreserved hepatocytes", "conditions": "mouse", "procedure": "1) 10 mM test compounds were provided.\nas §1, §2, §3, §4, §5, §6, §7, §8, §9, §10, §11, §12, §13, §14, §15, §16, §17"}, "[4]": {"test_system": "cryopreserved hepatocytes", "conditions": "dog"}, "[5]": {"test_system": "cryopreserved hepatocytes", "conditions": "cynomolgus monkey"}, "in vitro [6]": {"assay": "in vitro", "conditions": "human, hepatocytes"}, "in vitro [7]": {"assay": "in vitro", "conditions": "rat, hepatocytes", "procedure": "1) 10 mM test compounds were provided.\nas §1, §2, §3, §4, §5, §6, §7, §8, §9, §10, §11, §12, §13, §14, §15, §16, §17"}, "in vitro [8]": {"assay": "in vitro", "conditions": "mouse, hepatocytes", "procedure": "1) 10 mM test compounds were provided.\nas §1, §2, §3, §4, §5, §6, §7, §8, §9, §10, §11, §12, §13, §14, §15, §16, §17"}, "in vitro [9]": {"assay": "in vitro", "conditions": "dog, hepatocytes"}, "in vitro [10]": {"assay": "in vitro", "conditions": "cynomolgus monkey, hepatocytes"}, "[11]": {"conditions": "rat liver microsome, scaled to liver"}, "in vitro [12]": {"assay": "in vitro", "conditions": "rat, microsomes"}, "[13]": {"assay": "Liver microsome metabolic stability (LMS) assay, dog", "conditions": "dog, microsomes"}, "[14]": {"assay": "Liver microsome metabolic stability (LMS) assay, human"}, "[15]": {"assay": "Liver microsome metabolic stability (LMS) assay, cynomolgus monkey"}}}
{"molecule": "CCOc1ccc2ccc(=O)oc2c1", "note": "[Ref. 1, 7-Ethoxycoumarin]", "values": [{"measurement": "CLint (hep) H", "setting": "[1]", "value": 72.1, "unit": "μL/min/10^6"}, {"measurement": "CLint (hep) R", "setting": "[2]", "value": 39.2, "unit": "μL/min/10^6"}, {"measurement": "CLint (hep) M", "setting": "[3]", "value": 647.9, "unit": "μL/min/10^6"}, {"measurement": "CLint (hep) D", "setting": "[4]", "value": 521.1, "unit": "μL/min/10^6"}, {"measurement": "CLint (hep) C", "setting": "[5]", "value": 154.0, "unit": "μL/min/10^6"}, {"measurement": "CLint scaled at 3 μM", "setting": "in vitro [6]", "value": 201, "unit": "mL/min/kg"}, {"measurement": "half-life at 3 μM", "setting": "in vitro [6]", "value": 19.2, "unit": "min"}, {"measurement": "CLint scaled at 3 μM", "setting": "in vitro [7]", "value": 184, "unit": "mL/min/kg"}, {"measurement": "half-life at 3 μM", "setting": "in vitro [7]", "value": 35.3, "unit": "min"}, {"measurement": "CLint scaled at 3 μM", "setting": "in vitro [8]", "value": 7700, "unit": "mL/min/kg"}, {"measurement": "half-life at 3 μM", "setting": "in vitro [8]", "value": 2.1, "unit": "min"}, {"measurement": "CLint scaled at 3 μM", "setting": "in vitro [9]", "value": 3580, "unit": "mL/min/kg"}, {"measurement": "CLint scaled at 3 μM", "setting": "in vitro [10]", "value": 554, "unit": "mL/min/kg"}, {"measurement": "half-life at 3 μM", "setting": "in vitro [10]", "value": 9, "unit": "min"}]}
{"molecule": "C[C@]12CC[C@H]3[C@@H](CCC4=CC(=O)CC[C@@]43C)[C@@H]1CC[C@@H]2O", "note": "[Ref. 4, Testosterone, reference compound]", "values": [{"measurement": "CLint (liver) R", "setting": "[11]", "value": 3782.4, "unit": "mL/min/kg"}, {"measurement": "half-life", "setting": "in vitro [12]", "value": 0.7, "unit": "min"}, {"measurement": "CLint scaled at 1 μM", "setting": "[13]", "value": 58.7, "unit": "mL/min/kg"}, {"measurement": "half-life at 1 μM", "setting": "[13]", "value": 34, "unit": "min"}, {"measurement": "microsomal CLint at 1 μM", "setting": "[13]", "value": 40.8, "unit": "µL/min/mg"}, {"measurement": "CLint (mic) H", "setting": "[14]; human liver microsome", "value": 79.0, "unit": "µL/min/mg"}, {"measurement": "half-life at 1 μM", "setting": "[14]; human, microsomes", "value": 17.6, "unit": "min"}, {"measurement": "CLint (mic) C", "setting": "[15]; cynomolgus monkey liver microsome", "value": 152.3, "unit": "µL/min/mg"}, {"measurement": "CLint scaled at 1 μM", "setting": "[15]; cynomolgus monkey, microsomes", "value": 206, "unit": "mL/min/kg"}, {"measurement": "half-life at 1 μM", "setting": "[15]; cynomolgus monkey, microsomes", "value": 9.1, "unit": "min"}]}
